Source: US9546157B2, “Asymmetric piperidinyl-substituted ureas as medicines” (Helsinn Healthcare SA, priority 2014, dated 2017)
pEC50, pIC50: −log10 of the molar value.

How the values were obtained:
[1] = molecular target: T1, GHSR1a (Homo sapiens, UniProt Q92847); test: Calcium FLIPR assay, GHSR-1a agonism; format: cell-based; parameters: Emax: unit not given here; details: HEK293/GHSR1a cells
T1 construct: expressed in transfected cells; host or cells: HEK293
Method in brief: (§1)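 Antagonist potency reflects lowering of the 10 nM ghrelin calcium signal in HEK293/GHSR1a cells, with compound and ghrelin given at t=20 sec. Agonism was scored from the 2-minute fluorescence response to compound alone.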

[2] = molecular target: T1, GHSR1a; test: Calcium FLIPR assay, GHSR-1a antagonism (reduction of ghrelin response); format: cell-based; details: HEK293/GHSR1a cells, ghrelin 10 nM
Method in brief: as §1

T1 sequence (Q92847 whole entry): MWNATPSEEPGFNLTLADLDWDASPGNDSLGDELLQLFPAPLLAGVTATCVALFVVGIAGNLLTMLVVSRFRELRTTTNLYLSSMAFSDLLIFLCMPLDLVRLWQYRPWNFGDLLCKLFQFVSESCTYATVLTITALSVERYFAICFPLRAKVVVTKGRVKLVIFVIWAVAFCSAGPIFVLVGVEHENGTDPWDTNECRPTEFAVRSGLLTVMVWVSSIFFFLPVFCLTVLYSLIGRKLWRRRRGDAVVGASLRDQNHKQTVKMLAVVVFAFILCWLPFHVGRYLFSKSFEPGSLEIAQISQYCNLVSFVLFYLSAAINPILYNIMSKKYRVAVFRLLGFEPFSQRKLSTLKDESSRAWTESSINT

pEC50 [1] | pIC50 [2] | Emax [1] | SMILES
< 4.52 | 6.16 |  | CN1CCC(N(C)C(=O)NC(C)(C#N)c2ccc(-c3cncnc3)c(Cl)c2Cl)CC1 (stereo not drawn) [Compound H0703, 3-(1-cyano-1-(2,3-dichloro-4-(pyrimidin-5-yl)phenyl)ethyl)-1-methyl-1-(1-methylpiperidin-4-yl)urea]
7.04 | 6.94 | 2111 | C=Cc1cncc(-c2ccc(C(C)NC(=O)N(C)C3CCN(C)CC3)c(Cl)c2Cl)c1 (stereo not drawn) [Compound H0706, 3-(1-(2,3-dichloro-4-(5-vinylpyridin-3-yl)phenyl)ethyl)-1-methyl-1-(1-methylpiperidin-4-yl)urea]
< 4.52 | 6.73 |  | CC(NC(=O)N(C)C1CCN(C)CC1)c1ccc(-c2cncc(-c3cn[nH]c3)c2)c(Cl)c1Cl (stereo not drawn) [Compound H0707, 3-(1-(4-(5-(1H-pyrazol-4-yl)pyridin-3-yl)-2,3-dichlorophenyl)ethyl)-1-methyl-1-(1-methylpiperidin-4-yl)urea]
< 4.52 | 5.86 |  | COCc1cncc(-c2ccc(C(C)NC(=O)N(C)C3CCN(C)CC3)c(Cl)c2Cl)c1 (stereo not drawn) [Compound H0708, 3-(1-(2,3-dichloro-4-(5-(methoxymethyl)pyridin-3-yl)phenyl)ethyl)-1-methyl-1-(1-methylpiperidin-4-yl)urea]
< 4.52 | 6.17 |  | CON(C(=O)NC(C#N)c1ccc(-c2cncnc2)c(Cl)c1Cl)C1CCN(C)CC1 (stereo not drawn) [Compound H0709]
6.40 | 6.56 | 1621 | C#Cc1cncc(-c2ccc(C(C)NC(=O)N(C)C3CCN(C)CC3)c(Cl)c2Cl)c1 (stereo not drawn) [Compound H0710, 3-(1-(2,3-dichloro-4-(5-ethynylpyridin-3-yl)phenyl)ethyl)-1-methyl-1-(1-methylpiperidin-4-yl)urea]
< 4.52 | 5.73 |  | CC(NC(=O)N(C)C1CCN(C)CC1)c1ccc(-c2cncc(-c3c[nH]cn3)c2)c(Cl)c1Cl (stereo not drawn) [Compound H0711, 3-(1-(4-(5-(1H-imidazol-4-yl)pyridin-3-yl)-2,3-dichlorophenyl)ethyl)-1-methyl-1-(1-methylpiperidin-4-yl)urea]
6.66 | 6.38 | 1962 | CC(=O)Nc1cncc(-c2ccc(C(C)NC(=O)N(C)C3CCN(C)CC3)c(Cl)c2Cl)c1 (stereo not drawn) [Compound H0712, N-(5-(2,3-dichloro-4-(1-(3-methyl-3-(1-methylpiperidin-4-yl)ureido)ethyl)phenyl)pyridin-3-yl)acetamide]
7.54 | 6.73 | 3424 | CC(NC(=O)N(C)C1CCN(C)CC1)c1ccc(-c2ccc(C#N)s2)c(Cl)c1Cl (stereo not drawn) [Compound H0713, 3-(1-(2,3-dichloro-4-(5-cyanothiophen-2-yl)phenyl)ethyl)-1-methyl-1-(1-methylpiperidin-4-yl)urea]
< 4.52 | 6.34 |  | COCCc1cncc(-c2ccc(C(C)NC(=O)N(C)C3CCN(C)CC3)c(Cl)c2Cl)c1 (stereo not drawn) [Compound H0714, 3-(1-(2,3-dichloro-4-(5-(2-methoxyethyl)pyridin-3-yl)phenyl)ethyl)-1-methyl-1-(1-methylpiperidin-4-yl)urea]
7.38 | 7.24 | 2479 | CCc1cncc(-c2ccc(C(C)NC(=O)N(C)C3CCN(C)CC3)c(Cl)c2Cl)c1 (stereo not drawn) [Compound H0715, 3-(1-(2,3-dichloro-4-(5-ethylpyridin-3-yl)phenyl)ethyl)-1-methyl-1-(1-methylpiperidin-4-yl)urea]
< 4.52 | 6.40 |  | CC(NC(=O)N(C)C1CCN(C)CC1)c1ccc(-c2cncc(-c3cccs3)c2)c(Cl)c1Cl (stereo not drawn) [Compound H0717, 3-(1-(2,3-dichloro-4-(5-(thiophen-2-yl)pyridin-3-yl)phenyl)ethyl)-1-methyl-1-(1-methylpiperidin-4-yl)urea]
< 4.52 | 6.30 |  | CC(NC(=O)N(C)C1CCN(C)CC1)c1ccc(-c2cncc(C3CCCC3)c2)c(Cl)c1Cl (stereo not drawn) [Compound H0718, 3-(1-(2,3-dichloro-4-(5-cyclopentylpyridin-3-yl)phenyl)ethyl)-1-methyl-1-(1-methylpiperidin-4-yl)urea]
< 4.52 | 6.11 |  | CC(NC(=O)N(C)C1CCN(C)CC1)c1ccc(-c2cncc(N3CCCC3)c2)c(Cl)c1Cl (stereo not drawn) [Compound H0719, 3-(1-(2,3-dichloro-4-(5-(pyrrolidin-1-yl)pyridin-3-yl)phenyl)ethyl)-1-methyl-1-(1-methylpiperidin-4-yl)urea]
< 4.52 | 6.34 |  | CC(NC(=O)N(C)C1CCN(C)CC1)c1ccc(-c2ccc(C(=O)N(C)C)s2)c(Cl)c1Cl (stereo not drawn) [Compound H0726, 5-(2,3-dichloro-4-(1-(3-methyl-3-(1-methylpiperidin-4-yl)ureido)ethyl)phenyl)-N,N-dimethylthiophene-2-carboxamide]
< 4.52 | 5.44 |  | CN1CCC(N(C)C(=O)NC2(c3ccc(-c4cncnc4)c(Cl)c3Cl)CCOCC2)CC1 [Compound H0727, 3-(4-(2,3-dichloro-4-(pyrimidin-5-yl)phenyl)tetrahydro-2H-pyran-4-yl)-1-methyl-1-(1-methylpiperidin-4-yl)urea]

pEC50 [1] | pIC50 [2] | Emax [1] | SMILES
7.02 | 7.00 | 2818 | CC(NC(=O)N(C)C1CCN(C)CC1)c1ccc(-c2cccnn2)c(Cl)c1Cl (stereo not drawn) [Compound H0729, 3-(1-(2,3-dichloro-4-(pyridazin-3-yl)phenyl)ethyl)-1-methyl-1-(1-methylpiperidin-4-yl)urea]
< 4.52 | 7.02 |  | CC(O)C#Cc1ccc(C(C)NC(=O)N(C)C2CCN(C)CC2)c(Cl)c1Cl (stereo not drawn) [Compound H0733, 3-(1-(2,3-dichloro-4-(3-hydroxybut-1-yn-1-yl)phenyl)ethyl)-1-methyl-1-(1-methylpiperidin-4-yl)urea]
< 4.52 | 6.69 |  | CC(NC(=O)N(C)C1CCN(C)CC1)c1ccc(C#Cc2ccccn2)c(Cl)c1Cl (stereo not drawn) [Compound H0734, 3-(1-(2,3-dichloro-4-(pyridin-2-ylethynyl)phenyl)ethyl)-1-methyl-1-(1-methylpiperidin-4-yl)urea]
< 4.52 | 6.68 |  | CC(NC(=O)N(C)C1CCN(C)CC1)c1ccc(-c2cncc(-c3ncccn3)c2)c(Cl)c1Cl (stereo not drawn) [Compound H0735, 3-(1-(2,3-dichloro-4-(5-(pyrimidin-2-yl)pyridin-3-yl)phenyl)ethyl)-1-methyl-1-(1-methylpiperidin-4-yl)urea]
< 4.52 | 6.16 |  | COc1cncc(-c2ccc(C(C)NC(=O)N(C)C3CCN(C)CC3)c(Cl)c2Cl)n1 (stereo not drawn) [Compound H0738, 3-(1-(2,3-dichloro-4-(6-methoxypyrazin-2-yl)phenyl)ethyl)-1-methyl-1-(1-methylpiperidin-4-yl)urea]
8.82 | 8.15 | 3620 | C#Cc1ccc(C(CC2CC2)NC(=O)N(OC)C2CCN(C)CC2)c(Cl)c1Cl (stereo not drawn) [Compound H0740, 3-(2-cyclopropyl-1-(2,3-dichloro-4-ethynylphenyl)ethyl)-1-methoxy-1-(1-methylpiperidin-4-yl)urea]
< 4.52 | 7.82 |  | CON(C(=O)NC(CC1CC1)c1ccc(-c2cnccn2)c(Cl)c1Cl)C1CCN(C)CC1 (stereo not drawn) [Compound H0741, 3-(2-cyclopropyl-1-(2,3-dichloro-4-(pyrazin-2-yl)phenyl)ethyl)-1-methoxy-1-(1-methylpiperidin-4-yl)urea]
< 4.52 | 7.27 |  | C#Cc1ccc(C(C)NC(=O)N(OC)C2CCN(C)CC2)c(Cl)c1Cl (stereo not drawn) [Compound H0742, 3-(1-(2,3-dichloro-4-ethynylphenyl)ethyl)-1-methoxy-1-(1-methylpiperidin-4-yl)urea]
< 4.52 | 7.03 |  | CON(C(=O)NC(C)c1ccc(-c2cnccn2)c(Cl)c1Cl)C1CCN(C)CC1 (stereo not drawn) [Compound H0743, 3-(1-(2,3-dichloro-4-(pyrazin-2-yl)phenyl)ethyl)-1-methoxy-1-(1-methylpiperidin-4-yl)urea]
7.35 | 7.48 | 3536 | C#Cc1ccc(C(CC2CC2)NC(=O)N(OCC)C2CCN(C)CC2)c(Cl)c1Cl (stereo not drawn) [Compound H0744, 3-(2-cyclopropyl-1-(2,3-dichloro-4-ethynylphenyl)ethyl)-1-ethoxy-1-(1-methylpiperidin-4-yl)urea]
7.01 | 7.24 | 2391 | C#Cc1ccc(C(C)NC(=O)N(O)C2CCN(C)CC2)c(Cl)c1Cl (stereo not drawn) [Compound H0745, 3-(1-(2,3-dichloro-4-ethynylphenyl)ethyl)-1-hydroxy-1-(1-methylpiperidin-4-yl)urea]
< 4.52 | 6.67 |  | CC(NC(=O)N(C)C1CCN(C)CC1)c1ccc(-c2cncc(-c3ccoc3)c2)c(Cl)c1Cl (stereo not drawn) [Compound H0746, 3-(1-(2,3-dichloro-4-(5-(furan-3-yl)pyridin-3-yl)phenyl)ethyl)-1-methyl-1-(1-methylpiperidin-4-yl)urea]
< 4.52 | 7.08 |  | CC(NC(=O)N(C)C1CCN(C)CC1)c1ccc(-c2cncc(-c3ccsc3)c2)c(Cl)c1Cl (stereo not drawn) [Compound H0747, 3-(1-(2,3-dichloro-4-(5-(thiophen-3-yl)pyridin-3-yl)phenyl)ethyl)-1-methyl-1-(1-methylpiperidin-4-yl)urea]
< 4.52 | 6.26 |  | CC(NC(=O)N(C)C1CCN(C)CC1)c1ccc(-c2cncc(-c3cnn(C)c3)c2)c(Cl)c1Cl (stereo not drawn) [Compound H0748, 3-(1-(2,3-dichloro-4-(5-(1-methyl-1H-pyrazol-4-yl)pyridin-3-yl)phenyl)ethyl)-1-methyl-1-(1-methylpiperidin-4-yl)urea]
6.40 | 6.95 | 1554 | C#Cc1ccc(C(C)NC(=O)N(OCC)C2CCN(C)CC2)c(Cl)c1Cl (stereo not drawn) [Compound H0749, 3-(1-(2,3-dichloro-4-ethynylphenyl)ethyl)-1-ethoxy-1-(1-methylpiperidin-4-yl)urea]
